Data on one compound can be found in US8143265B2, “Method of treating atherosclerosis” (Meharry Medical College, priority 2007, dated 2012).

One series has as its system ApoE−/− mice. In words: Atherosclerosis development in ApoE−/− mice with oral feeding of 2-AP. It counts as in vivo, mouse. On the procedure: FIG. 1. ApoE^−/− mice at 5 weeks of age were treated with 200 mg/kg BW of 2-AP or equal volume of water as control via gavage feeding. This procedure was repeated once every other day for […]. A. Heart-aorta samples were collected from mice at 6 months of age (n=12 for each group of mice). Sequential 8-μm thick sections were cut from the mouse aortic root. The area (μm^2) of atherosclerotic lesions in the section was measured. B. Aortas from the aortic root to the iliac bifurcation were collected, and the area of atherosclerotic lesions and the total area of the aortic surface were measured, data are expressed as the percent of aortic surface area covered by atherosclerotic lesions. Data are expressed as the mean±SEM. *P<0.05 as compared to untreated control mice. 1. Inhibition of eIF-2α phosphorylation by 2-AP delays the development of atherosclerosis in ApoE^−/− mice: We find that oral feeding of 2-AP reduces the mean size of atherosclerotic lesions in the aorta root and the aorta tree by about 45% and 37%, respectively. […] These findings provide evidence that development of atherosclerosis in ApoE^−/− mice is associated with an increased eIF-2α phosphorylation and that inhibition of eIF-2α phosphorylation via in vivo treatment with 2-AP delays the development of atherosclerosis.

Series [1] has as its system mouse peritoneal macrophages. The series is described as follows: E−/B48 lipoprotein-induced foam cell formation, confocal microscopy of DiI and LysoTracker staining. It counts as cell-based. The conditions noted are these: MPMs, 20 μg/ml DiI-labeled E−/B48 lipoproteins plus 2 mM 2-AP, 48 hrs. On the procedure:
FIG. 2. Mouse peritoneal macrophages were treated with 20 μg/ml DiI-labeled E^−/B48 lipoproteins, 20 μg/ml E^−/B48 lipoproteins plus 2 mM 2-AP, or culture medium alone (control) for 48 hrs. The cells were then stained with LysoTracker, which is used to localize lysosomes. Confocal microscopy images were captured, and the merged images are an overlay of the differential interference contrast (DIC) images and the fluorescence images of intracellular DiI and LysoTracker staining. Co-localization of DiI and LysoTracker staining indicates lipoprotein accumulation in the lysosomes. 2. Inhibition of eIF-2α phosphorylation by 2-AP represses E^−/B48 lipoprotein-induced foam cell formation in vitro. We previously reported that incubation of mouse peritonea macrophages (MPMs) with E^−/B48 lipoproteins induces lipid droplet accumulation in the cytoplasm. In some cells, E^−/B48 lipoproteins caused the cytoplasm to be almost entirely accumulated lipids, giving these cells a foam cell like appearance^12. In the present study, we used a confocal microscopy to localize the accumulated lipids in MPMs and to assess the effect of 2-AP on this localization.

The subject of a further series is eIF-2α phosphorylation. The series is described as follows: E−/B48 lipoprotein-induced eIF2α phosphorylation in MPMs. It counts as cell-based, mouse. The note with it: addition to culture medium or transfection, data not shown. The source says:
3. ApoE-deficient lipoproteins induce eIF-2α phosphorylation. […] We also observed that addition of 2-AP to culture medium or transfection of a nonphosphorylatable eIF2α mutant to MPMs attenuated E^−/B48 lipoprotein-induced eIF2α phosphorylation (not shown).

For series [2], the system named is mouse peritoneal macrophages. The series is described as follows: E−/B48 lipoprotein degradation and lipoprotein and cholesterol ester accumulation in MPMs. Type of series: cell-based. The conditions noted are these: addition to culture medium or transfection, data not shown. The source says: 4. Inhibition of eIF-2α phosphorylation increases macrophage lipoprotein degradation, and suppresses cholesterol ester and lipoprotein accumulation in macrophages. We observed that E^−/B48 lipoproteins induced a time-related accumulation of cholesterol ester and lipoproteins in MPMs, which is associated with a reduced degradation rate of E^−/B48 lipoproteins. The addition of 2-AP to culture medium or transfection of a nonphosphorylatable eIF-2α mutant to MPMs enhances E^−/B48 lipoprotein degradation, and reduces E^−/B48 lipoprotein and cholesterol ester accumulation (data not shown).

Series [3] relates to lysosomal hydrolases, including cathepsin B and lysosomal acid lipase. In words: E−/B48 lipoprotein-induced suppression of lysosomal hydrolases in MPMs. Type of series: cell-based, mouse. The conditions noted are these: data not shown. An excerpt: 5. Inhibition of eIF-2α phosphorylation attenuates E^−/B48 lipoprotein-induced suppressive effect on lysosomal hydrolases. […] We also observed that 2-AP and the nonphosphorylatable eIF-2α mutant attenuated the suppressive effect of E^−/B48 lipoproteins on lysosomal hydrolases (data not shown). It is highly likely that E^−/B48 lipoprotein-induced eIF-2α phosphorylation down-regulates macrophage lysosomal hydrolases, which in turn reduces the degradation of the lipid and protein components of E^−/B48 lipoproteins, leading to lipoprotein accumulation in the lysosomes and triggering foam cell formation.

In another series the test system is mRNA translation. The series is described as follows: E−/B48 lipoprotein-induced suppression of mRNA translation. Type of series: cell-based. The note with it: data not shown. An excerpt: 6. Inhibition of eIF-2α phosphorylation attenuates E^−/B48 lipoprotein-induced suppression on mRNA translation. We observed that E^−/B48 lipoproteins reduced lysosomal hydrolases, due mainly to suppressing the translation of mRNAs encoding these proteins, and that 2-AP attenuated the suppressive effect of E^−/B48 lipoproteins on mRNA translation (data not shown).

Setting [4] is: ApoE−/− mice, 200 mg/kg BW 2-AP by gavage once every other day for 24 weeks, vs untreated control.
The mark [5] stands for this setting: ApoE−/− mice, 200 mg/kg BW once every other day for 24 weeks, 6-hr fasting.

For `Nc1ncc2[nH]cnc2n1` [2-AP, 7H-purin-2-amine], in the series with ApoE−/− mice (2-AP treatment of ApoE−/− mice), the body weight result is listed as “did not alter” and the food intake result is “did not alter”. Moreover, the “advanced lesions (e.g., fibrous caps and acellular areas)” value in the series on ApoE−/− mice (2-AP-treated ApoE−/− mice) is given as “reduced markedly”. Besides, in the series with ApoE−/− mice (setting [4]), the “reduction of mean size of atherosclerotic lesions in the aorta root” value is given as “about 45%” and the “reduction of mean size of atherosclerotic lesions in the aorta tree” value is roughly 37%. In the series with ApoE−/− mice (setting [5]), the plasma glucose levels entry is “did not alter”, the plasma insulin levels result is recorded as “did not alter” and the plasma lipid levels result is “did not alter”. Also, in the series with ApoE−/− mice (immunohistology, 2-AP-treated vs untreated ApoE−/− mice), the “phosphorylated eIF-2α immunostaining in the atherosclerotic lesions” value is recorded as “significantly reduced”. Moreover, in series [1], the “level of staining with DiI (intralysosomal lipid accumulation)” value was “markedly reduced”. Also, in the series on eIF-2α phosphorylation, the “E−/B48 lipoprotein-induced eIF2α phosphorylation” value is on record as “attenuated”. In addition, in series [2], the “E−/B48 lipoprotein accumulation” value is on record as “reduces”, the “E−/B48 lipoprotein degradation” value is “enhances” and the cholesterol ester accumulation result was “reduces”. Moreover, the “suppressive effect of E−/B48 lipoproteins on lysosomal hydrolases” value in series [3] is “attenuated”. The “suppressive effect of E−/B48 lipoproteins on mRNA translation” value with mRNA translation is “attenuated”.
